Measured values: patent US8946219B2, “Combination therapy with a compound acting as a platelet ADP receptor inhibitor” (Portola Pharmaceuticals, Inc., priority 2007, dated 2015)

How the values were obtained:
[1] = system: thrombus formation under arterial shear conditions; assay: Perfusion assay, blood collected in bivalirudin, type III collagen, 1600 s^−1 (Example 8); assay type: cell-based; details: bivalirudin alone, 12 μg/mL
Experimental: As an example of additive antithrombotic benefit achieved when Compound A was combined with a direct thrombin inhibitor, such as bivalirudin, in the following assay, blood was collected in 12 μg/mL bivalirudin (standard therapeutic concentration), incubated with various concentrations of Compound A (0.1, 1 or 10 μM) for 20 mins in the presence of rhodamine 6G (which fluorescently labels platelets), followed by perfusion through a glass capillary coated with collagen (type III) at a fixed shear rate (1600 s^−1). […] FIG. 7 illustrates the combined antithrombotic benefit achieved by the combination of Compound A and bivalirudin.

[2] = system: thrombosis on mouse mesenteric arteries; assay: Mouse mesenteric artery thrombosis model, 5% FeCl3 (Example 13, present tense); assay type: in vivo, C57B16J mice; details: for antithrombotic activity in the intravital microscopy thrombosis model in mice: other factor Xa inhibitors, expected
Experimental: Thrombosis on mouse mesenteric arteries (shear rate 1000-1300 s^−1) is performed and recorded as previously described with minor modifications, as described in Andre, P. et al., Anticoagulants (thrombin inhibitors) and aspirin synergize with P2Y12 receptor antagonism in thrombosis. Circulation, 2003, 108(21):2697-703. Platelets are labeled in situ using rhodamine 6G (0.2 mg/mL) administered through the tail vein 10 mins before visualization of the arteries. Vessel-wall injury is triggered by a 1×1-mm filter paper saturated with a 5% FeCl3 solution. After 5 minutes, the filter paper is removed and mesenteric arteries rinsed with warmed saline (37° C.). Platelet vessel-wall interactions are recorded for 40 additional mins or until full occlusion occurs and persists for more than 40 seconds. C57B16J mice are orally gavaged with vehicle control, Compound A (7.5, 20, 60 mg/kg) or betrixaban (4, 40, 400 mg/kg) two hours prior to vascular injury. Thrombosis is analyzed in real time using Simple PCI software, as described in Andre, P. et al., P2Y12 regulates platelet adhesion/activation, thrombus growth, and thrombus stability in injured arteries. J Clin Invest, 2003, 112(3):398-406. The fluorescence intensity is recorded at a rate of 2 Hz for 40 minutes and plotted over time. Time to occlusion (cessation of blood flow) is analyzed.

[3] = system: platelet thrombus formation on collagen-coated capillary (type I collagen); assay: Perfusion assay, non-anticoagulated whole blood, type I collagen, 1000 s^−1 (Example 6); assay type: cell-based, human; details: Compound A alone at 10 μM
Experimental: After perfusion the size of the platelet thrombus was measured by fluorescence.

[4] = system: ADP induced platelet aggregation in human platelet rich plasma; assay: ADP induced platelet aggregation; assay type: cell-based
[5] = system: thrombosis on mouse mesenteric arteries; assay: Mouse mesenteric artery thrombosis model, intravital microscopy, 10% FeCl3 (Example 14); assay type: in vivo, C57B16J mice
Experimental: Thrombosis on mouse mesenteric arteries (shear rate 1000-1300 s^−1) was performed and recorded as previously described with minor modifications. (Andre, P., et al., Anticoagulants (thrombin inhibitors) and aspirin synergize with P2Y12 receptor antagonism in thrombosis. Circulation, 2003. 108(21): p. 2697-703.) Platelets were labeled in situ using rhodamine 6G (0.2 mg/mL) administered through the tail vein 10 min before visualization of the arteries. Vessel-wall injury was triggered by a 1×1-mm filter paper saturated with a 10% FeCl3 solution. After 5 minutes, the filter paper was removed and mesenteric arteries rinsed with warmed saline (37° C.). Platelet vessel-wall interactions were recorded for 40 additional min or until full occlusion occurred and persisted for more than 40 seconds. C57B16J mice were orally gavaged with vehicle control, compound A (0.83, 2.5, 7.5, 20, 60 mg/kg) or betrixaban (2, 4, 10 mg/kg) two hours prior to vascular injury. Thrombosis was analyzed in real time using Simple PCI software. (Andre, P., et al., P2Y12 regulates platelet adhesion/activation, thrombus growth, and thrombus stability in injured arteries. J Clin Invest, 2003. 112(3): p. 398-406.) The fluorescence intensity was recorded at a rate of 2 Hz for 40 minutes and plotted over time. Time to occlusion (cessation of blood flow) is analyzed.
Plasma concentrations of Compound A and betrixaban were determined on blood draw collected 2 min post-occlusion or 42 min after start of vascular injury.

[6] = system: whole human blood perfused over type III collagen (thrombus formation); assay: Real time perfusion chamber thrombosis assay (Example 3); assay type: cell-based; details: read-out: inhibition of thrombosis
Excerpt: The real time perfusion chamber assay couples the features of animal thrombosis models that use intravital microscopy to those of perfusion chamber technology in order to produce an assay suited to monitoring drug activity in clinical trials. This assay perfuses whole blood through capillaries at arterial rates of shear, exposing the blood to thrombogenic type III collagen. Platelets are labeled with a fluorescent dye (rhodamine 6 G) prior to perfusion such that analysis of the thrombus deposition can be performed by measurement of fluorescence intensity inside the perfusion chamber. Quantification is performed by analysis of the thrombus height (fluorescence intensity (number of pixels)/total area (μm^2)).

[7] = system: thrombin generation in platelet rich plasma; assay: Platelet-initiated thrombin generation assay (Example 5); assay type: cell-based, human
Experimental: Whole blood from healthy volunteer donors was collected by venipuncture and drawn into 3.2% trisodium citrate (Vacutainer, Becton Dickinson) for anticoagulation. Platelet rich plasma was prepared by centrifugation and the platelet count was adjusted to 150,000/μL. In a 96 well plate, platelets were activated by addition of convulxin (200 ng/mL) and incubation at 37° C. for 3 mins. Subsequent to platelet activation, thrombin generation was initiated by addition of 23 pM tissue factor (Innovin, Dade Behring) and 15 mM calcium. Thrombin activity was monitored by cleavage of the specific fluorogenic substrate (Z-gly-gly-arg-AMC, Bachem) in a fluorescence plate reader.

[8] = betrixaban 10 mg/kg, oral gavage

In the case of bivalirudin, the “inhibition of the thrombotic process” value [1] is reported as “did not significantly inhibit the thrombotic process”.

For `COc1ccc(-n2nc(C(N)=O)c3c2C(=O)N(c2ccc(N4CCCCC4=O)cc2)CC3)cc1` [apixaban, 1-(4-methoxyphenyl)-7-oxo-6-(4-(2-oxopiperidin-1-yl)phenyl)-3a,4,5,6,7,7a-hexahydro-1H-pyrazolo[3,4-c]pyridine-3-carboxamide], the “antithrombotic activity in the intravital microscopy thrombosis model in mice” value [2] was “significant antithrombotic activity”.

`O=C(NC[C@H]1CN(c2ccc(N3CCOCC3=O)cc2)C(=O)O1)c1ccc(Cl)s1` [rivaroxaban, (5S)-5-chloro-N-((2-oxo-3-(4-(3-oxomorpholino)phenyl)oxazolidin-5-yl)methyl)thiophene-2-carboxamide] was tested, and the “antithrombotic activity in the intravital microscopy thrombosis model in mice” value [2] was “significant antithrombotic activity”.

With `CNc1cc2[nH]c(=O)n(-c3ccc(NC(=O)NS(=O)(=O)c4ccc(Cl)s4)cc3)c(=O)c2cc1F` [Compound A] the platelet thrombus size [3] was “no significant effect”, the “concentration capable of maximal inhibition of platelet aggregation” value [4] was 10 µM and the IC50 ([4]; Platelet, platelets derived from human donors, n=19, read-out: half maximal inhibition of ADP induced platelet aggregation) was 4.7 ± 5.1 µM. For the same compound, the “plasma concentration that did not prevent occlusion” value ([5]; PK/PD, FIG. 13) was “below 1 μg/mL”, the “plasma concentrations of non-effective doses” value ([5]; PK/PD, FIG. 13) was “below 200 ng/mL” and the “plasma levels that prevented vascular occlusion” value ([5]; PK/PD, FIG. 13) was greater than 1 µg/mL. For the same compound, the inhibition at 1.1 µM [6] was 23%.

`COc1ccc(NC(=O)c2ccc(C(=N)N(C)C)cc2)c(C(=O)Nc2ccc(Cl)cn2)c1` [betrixaban, [2-({4-[(dimethylamino)iminomethyl]phenyl}carbonylamino)-5-methoxyphenyl]-N-(5-chloro(2-pyridyl))carboxamide] was tested, and the “concentration adequate for equivalent inhibition of thrombin generation as a therapeutic anticoagulant (Pentasaccharide fondaparinux)” value [7] was 31.25 nM, the non-effective doses ([2]; betrixaban) was “below 100 ng/mL” and the “time for appearance of first thrombus” value [5, 8] was “significantly delayed”. The time to occlusion [5, 8] was “significantly delayed” and the “effect in the thrombosis model” value ([5]; betrixaban 2 and 4 mg/kg, oral gavage) was “non-effective”.
